In patent US20260042753A1 (Merck Patent GmbH, priority 2019, published 2026):
Read-outs that look alike come from different tables or passages of the source.

Key:
[1] = molecular target: mutant cKIT (560-576 and V654A) in GIST430/654 cell line (Homo sapiens (Human), UniProt P10721, DEL560-576/V654A); assay: Cellular testing of cKIT mutant inhibitors: phospho-Y307-cKIT Luminex assay in GIST430/654 cells; assay type: cell-based; conditions: read-out: GIST 430/654 IC50
Method in brief: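 GIST430/654 cells carrying constitutively active cKIT (Δ560-576/V654A) were grown with 100 nM imatinib, then treated with serially diluted compound for 45 min. Lysates were captured on anti-total-cKIT Luminex beads overnight at 4 °C and probed for phospho-Y307-cKIT. IC50 was fitted from percent of 0.3% DMSO control.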

c-Kit(V654A) = c-Kit(V654A) (Homo sapiens, UniProt P10721, V654A); assay: c-Kit(V654A) assay; assay type: biochemical
Method in brief: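 Radiometric filter-binding read-out: after 3% phosphoric acid stop, peptide-incorporated 33P on filtermat scintillation-counted. Enzyme: human c-Kit V654A, residues 544–end, N-terminal GST fusion.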

[2] = Table 1, cKIT autophosphorylation, compounds 45 min
[3] = Table 2, corresponding triazole derivatives
[4] = Table 2, isoxazole derivatives presently described

Sequence of mutant cKIT (560-576 and V654A) in GIST430/654 cell line (P10721 other isoform, or with tags, fused parts or gaps V654A/del 1-25/del 560-576 limits assumed): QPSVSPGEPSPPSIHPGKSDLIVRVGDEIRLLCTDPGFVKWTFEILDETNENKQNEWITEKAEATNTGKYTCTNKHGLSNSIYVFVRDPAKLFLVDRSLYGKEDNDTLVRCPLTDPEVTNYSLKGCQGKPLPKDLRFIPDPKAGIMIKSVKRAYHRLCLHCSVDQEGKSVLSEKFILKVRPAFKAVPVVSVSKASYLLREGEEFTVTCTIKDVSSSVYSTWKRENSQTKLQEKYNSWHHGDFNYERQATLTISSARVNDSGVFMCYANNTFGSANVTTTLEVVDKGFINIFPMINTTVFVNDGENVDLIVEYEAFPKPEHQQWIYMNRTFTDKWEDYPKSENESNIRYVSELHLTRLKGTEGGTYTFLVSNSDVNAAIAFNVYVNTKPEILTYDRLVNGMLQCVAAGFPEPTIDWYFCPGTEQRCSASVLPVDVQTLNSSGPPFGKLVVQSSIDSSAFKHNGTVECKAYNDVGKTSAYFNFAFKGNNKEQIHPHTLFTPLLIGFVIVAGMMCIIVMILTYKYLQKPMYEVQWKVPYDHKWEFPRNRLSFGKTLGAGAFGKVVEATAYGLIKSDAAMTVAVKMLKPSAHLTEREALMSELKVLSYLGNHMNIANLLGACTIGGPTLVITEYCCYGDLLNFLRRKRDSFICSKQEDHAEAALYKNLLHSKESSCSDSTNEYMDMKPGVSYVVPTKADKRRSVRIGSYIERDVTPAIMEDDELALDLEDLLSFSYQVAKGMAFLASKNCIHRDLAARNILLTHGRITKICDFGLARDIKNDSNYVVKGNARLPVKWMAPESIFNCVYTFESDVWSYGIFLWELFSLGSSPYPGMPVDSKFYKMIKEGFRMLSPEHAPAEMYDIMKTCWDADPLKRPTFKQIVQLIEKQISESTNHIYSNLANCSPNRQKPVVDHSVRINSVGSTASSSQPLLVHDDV

SMILES | IC50 [1, 2] [nM] | IC50 (c-Kit(V654A); Table 1, 200 μM ATP) [nM] | other results
COCCOc1cc2[nH]nc(-c3cc(-c4ccc(C(=O)N5CC(O)(c6cccnc6)C5)cc4)no3)c2cc1F [A221, 1-(4-{5-[5-fluoro-6-(2-methoxyethoxy)-1H-indazol-3-yl]-1,2-oxazol-3-yl}benzoyl)-3-(pyridin-3-yl)azetidin-3-ol] | 120 | 0.54 | 
COCCOc1cc2[nH]nc(-c3cn(-c4ccc(C(=O)N5CCN(C)CC5)cc4)nn3)c2cc1F [reference compound] |  |  | IC50 [1, 3]: 840 nM; IC50 (c-Kit(V654A); [3]): 15 nM
COCCOc1cc2[nH]nc(-c3cc(-c4ccc(C(=O)N5CC(N6CCOC[C@@H]6C)C5)cc4)no3)c2cc1F [A200, 5-fluoro-6-(2-methoxyethoxy)-3-[3-(4-{3-[(3S)-3-methylmorpholin-4-yl]azetidine-1-carbonyl}phenyl)-1,2-oxazol-5-yl]-1H-indazole] | 19 | 1.3 | 
COCCOc1cc2[nH]nc(-c3cc(-c4ccc(C(=O)N5CCOC[C@H]5C)cc4)no3)c2cc1F [compound 114] |  |  | IC50 [1, 4]: 56 nM; IC50 (c-Kit(V654A); [4]): 0.91 nM
COCCOc1ccc2c(-c3cn(-c4ccc(C(=O)N5CCN(C)C[C@@H]5C)cc4)nn3)n[nH]c2c1 [reference compound] |  |  | IC50 [1, 3]: 320 nM; IC50 (c-Kit(V654A); [3]): 6.1 nM
COCCOc1cc2[nH]nc(-c3cn(-c4ccc(C(=O)N5CC(c6ccncc6)C5)cc4)nn3)c2cc1F [reference compound] |  |  | IC50 [1, 3]: 160 nM; IC50 (c-Kit(V654A); [3]): 2.6 nM
COCCOc1cc2[nH]nc(-c3cc(-c4ccc(C(=O)N5CC(c6cncnc6)C5)cc4)no3)c2cc1F [A212, 5-fluoro-6-(2-methoxyethoxy)-3-(3-{4-[3-(pyrimidin-5-yl)azetidine-1-carbonyl]phenyl}-1,2-oxazol-5-yl)-1H-indazole] | 41 | 0.59 | 
COCCOc1cc2[nH]nc(-c3cc(-c4ccc(C(=O)N5CC(N6CCC(O)CC6)C5)cc4)no3)c2cc1F [A103, 1-[1-(4-{5-[5-fluoro-6-(2-methoxyethoxy)-1H-indazol-3-yl]-1,2-oxazol-3-yl}benzoyl)azetidin-3-yl]piperidin-4-ol] | 140 | 0.96 | 
COCCOc1cc2[nH]nc(-c3cc(-c4ccc(C(=O)N(C)C)nc4)no3)c2cc1F [A99, 5-{5-[5-fluoro-6-(2-methoxy-ethoxy)-1H-indazol-3-yl]-isoxazol-3-yl}-pyridine-2-carboxylic acid dimethylamide] | 670 | 6.9 | 
COCCOc1cc2[nH]nc(-c3cc(-c4ccc(C(=O)N5CC(C)(N)C5)cc4)no3)c2cc1F [A56, 1-(4-{5-[5-fluoro-6-(2-methoxyethoxy)-1H-indazol-3-yl]-1,2-oxazol-3-yl}benzoyl)-3-methylazetidin-3-amine] | 170 | 1.6 | 
COCCOc1cc2[nH]nc(-c3cc(-c4ccc(C(=O)N5CC(N6CCOCC6)C5)cc4)no3)c2cc1Cl [A64, (4-{5-[5-chloro-6-(2-methoxy-ethoxy)-1H-indazol-3-yl]-isoxazol-3-yl}-phenyl)-(3-morpholin-4-yl-azetidin-1-yl)-methanone] | 32 | 0.53 | 
COCCOc1cc2[nH]nc(-c3cc(-c4ccc(C(=O)N5CCC[C@H]5C(C)(C)O)cc4)no3)c2cc1F [A5, 2-[(2S)-1-(4-{5-[5-fluoro-6-(2-methoxyethoxy)-1H-indazol-3-yl]-1,2-oxazol-3-yl}benzoyl)pyrrolidin-2-yl]propan-2-ol] | 20 | 0.55 | 
COCCOc1cc2[nH]nc(-c3cc(-c4ccc(C(=O)N5CC(F)C5)cn4)no3)c2cc1F [A81, 5-fluoro-3-{3-[5-(3-fluoroazetidine-1-carbonyl)pyridin-2-yl]-1,2-oxazol-5-yl}-6-(2-methoxyethoxy)-1H-indazole] | 210 | 6 | 
COCCOc1cc2[nH]nc(-c3cn(-c4ccc(C(=O)N5Cc6ccncc6C5)cc4)nn3)c2cc1F [reference compound] |  |  | IC50 [1, 3]: 140 nM; IC50 (c-Kit(V654A); [3]): 2.3 nM
COCCOc1cc2[nH]nc(-c3cc(-c4ccc(C(=O)N(C)C)cn4)no3)c2cc1F [A91, 6-{5-[5-fluoro-6-(2-methoxyethoxy)-1H-indazol-3-yl]-1,2-oxazol-3-yl}-N,N-dimethylpyridine-3-carboxamide] | 290 | 7.2 | 
COCCOc1cc2[nH]nc(-c3cc(-c4ccc(-n5ccccc5=O)cc4)no3)c2cc1F [A41, 1-(4-{5-[5-Fluoro-6-(2-methoxy-ethoxy)-1H-indazol-3-yl]-isoxazol-3-yl}-phenyl)-1H-pyridin-2-one] | 120 | 3.1 | 
COCCOc1cc2[nH]nc(-c3cc(-c4ccc(C(=O)N5CCN(C6CCOCC6)CC5)cc4)no3)c2cc1F [A188, 5-fluoro-6-(2-methoxyethoxy)-3-(3-{4-[4-(oxan-4-yl)piperazine-1-carbonyl]phenyl}-1,2-oxazol-5-yl)-1H-indazole] | 34 | 0.61 | 
COCCOc1cc2[nH]nc(-c3cc(-c4ccc(C(=O)N5CCN(C)CC5)cc4)no3)c2cc1F [A36, 5-fluoro-6-(2-methoxyethoxy)-3-{3-[4-(4-methylpiperazine-1-carbonyl)phenyl]-1,2-oxazol-5-yl}-1H-indazole] | 120 | 1.2 | 

Now from value to molecule, other results behind:

IC50 [1, 2] [nM] | IC50 (c-Kit(V654A); Table 1, 200 μM ATP) [nM] | SMILES | other results
63 | 1.4 | COCCOc1cc2[nH]nc(-c3cc(-c4ccc(C(=O)N5CC(N6CCOCC6)C5)c(C)c4)no3)c2cc1F [A171, (4-{5-[5-fluoro-6-(2-methoxy-ethoxy)-1H-indazol-3-yl]-isoxazol-3-yl}-2-methyl-phenyl)-(3-morpholin-4-yl-azetidin-1-yl)-methanone] | 
140 | 2.7 | COCCOc1cc2[nH]nc(-c3cc(-c4ccc(OCCN5CCOCC5)cc4)no3)c2cc1F [A40, 5-fluoro-6-(2-methoxyethoxy)-3-(3-{4-[2-(morpholin-4-yl)ethoxy]phenyl}-1,2-oxazol-5-yl)-1H-indazole] | 
76 | 1 | [2H]C1([2H])N(C(=O)c2ccc(-c3cc(-c4n[nH]c5cc(OCCOC)c(F)cc45)on3)cc2)C([2H])([2H])C([2H])([2H])N(C2COC2)C1([2H])[2H] [A233, 5-fluoro-6-(2-methoxyethoxy)-3-(3-{4-[4-(oxetan-3-yl)(2,2,3,3,5,5,6,6-^2H8)piperazine-1-carbonyl]phenyl}-1,2-oxazol-5-yl)-1H-indazole] | 
130 | 8.8 | C[C@H]1CN(C)CCN1C(=O)c1ccc(-c2cc(-c3n[nH]c4cc(-c5cnn(C)c5)ccc34)on2)cc1 [A9, 3-(3-{4-[(2S)-2,4-dimethylpiperazine-1-carbonyl]phenyl}-1,2-oxazol-5-yl)-6-(1-methyl-1H-pyrazol-4-yl)-1H-indazole] | 
170 | 6.3 | COCCOc1cc2[nH]nc(-c3cc(-c4ccc(C(=O)N=S(C)(C)=O)cc4)no3)c2cc1F [A35, N-[dimethyl(oxo)-lambda6-sulfanylidene]-4-{5-[5-fluoro-6-(2-methoxyethoxy)-1H-indazol-3-yl]-1,2-oxazol-3-yl}benzamide] | 
240 | 0.71 | COCCOc1cc2[nH]nc(-c3cc(-c4ccc(C(=O)N5CC6(C5)CS(=O)(=O)C6)cc4)no3)c2cc1F [A151, 6-(4-{5-[5-fluoro-6-(2-methoxyethoxy)-1H-indazol-3-yl]-1,2-oxazol-3-yl}benzoyl)-2lambda6-thia-6-azaspiro[3.3]heptane-2,2-dione] | 
